The structures appear in SMILES notation.

In one assay the test system is contextual memory (freezing) in C57BL/6 male mice. In words: Contextual Memory Assay: Fear Conditioning. The assay is classed as in vivo, mouse. The note with it: 0.1 mg/kg injected 20 minutes before training. The source says: Contextual memory is a form of Pavlovian fear conditioning in which a naive mouse is placed into a novel chamber (context) containing distinct visual, olfactory and tactile cues. After several minutes of acclimation, the mouse receives a brief, mild electric shock to its feet. From this negative experience, the mouse will remember for months that that chamber is dangerous. When placed back into the same context at some later time after training, the mouse's natural response to danger is to “freeze,” sitting stone still for many seconds. This is similar to what happens to humans when they experience fear. The percent of time during an observation period that the mouse spends frozen represents a quantitative measure (memory score) of its memory of the context.
Young-adult (10-12 weeks old) C57BL/6 male mice and Sprague Dawley male rats of 250-300 g (Taconic, N.Y.) were used. Mice were group-housed (5 mice) in standard laboratory cages while rats were housed in pairs and maintained on a 12:12 light-dark cycle. The experiments were always conducted during the light phase of the cycle. With the exception of testing times, the mice had ad lib access to food and water. […]
To assess contextual memory, a modified contextual fear conditioning task originally developed for evaluation of memory in CREB knock-out mice was used (Bourtchouladze, et. aL, Cell, 1994, 79, 59-68). […] 24 hours after training, the mouse was placed into the same training chamber and contextual memory was assessed by scoring freezing behavior (‘freezing’ serves as memory score). […]
All experiments were designed and performed in a balanced fashion, meaning that (i) for each experimental condition (e.g. a specific dose-effect) an equal number of experimental and control mice was used; (ii) each experimental condition was replicated 2-3 independent times, and replicate days were added to generate final number of subjects. […] Data were analyzed by Student's unpaired t test using a software package (Statview 5.0.1; SAS Institute, Inc). All values in the text and figures are expressed as mean+SEM. […]
For the compound `COc1ccc(N2CCN[C@@H](CC3CCCCC3)C2)cc1OC1CCCC1` [Compound 126, (S)-3-Cyclohexylmethyl-1-(3-cyclopentyloxy-4-methoxy-phenyl)-piperazine], the “effect on contextual memory” value was “no significant effect”.

The same assay, now with this note: 1 mg/kg injected 20 minutes before training, 2 training trials, vehicle 22.3+3.2%, p<0.05.
Consider `COc1ccc(N2CCN[C@@H](CC3CCCCC3)C2)cc1OC1CCCC1` [Compound 126, (S)-3-Cyclohexylmethyl-1-(3-cyclopentyloxy-4-methoxy-phenyl)-piperazine], for which the “freezing (memory score) 24 hours after training” value was 32.5+3.2%.

The same assay, now with this note: 10 mg injected 20 minutes before training, 2 training trials, vehicle 22.3+3.2%, p<0.005.
Turning to `COc1ccc(N2CCN[C@@H](CC3CCCCC3)C2)cc1OC1CCCC1` [Compound 126, (S)-3-Cyclohexylmethyl-1-(3-cyclopentyloxy-4-methoxy-phenyl)-piperazine], the “freezing (memory score) 24 hours after training” value is recorded as 38.3%.

A further assay has as its system PDE4 from human U-937 cells. In words: PDE4 Inhibition Assay. The assay is classed as biochemical. The note with it: 1 μM cAMP, [3H]-cAMP, read-out: Potency Class (Inhibitory Concentration) in the PDE4 assay. The gist of the method:
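U-937-derived PDE4 (2 μg/ml) was preincubated with compound in Tris-HCl pH 7.5 for 15 min at 25° C. It then reacted 20 min with cAMP plus [^3H]-cAMP. [^3H]-AMP was converted to [^3H]-adenosine by nucleotidase, resin-separated and counted; IC50 came from percent inhibition.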
Regarding `CC(C)C[C@H]1CN(c2ccc(OC(F)F)c(OC3CCCC3)c2)CCN1C(=O)Cc1c[nH]cn1` [Compound 366, (S)-1-(4-(3-(cyclopentyloxy)-4-(difluoromethoxy)phenyl)-2-isobutylpiperazin-1-yl)-2-(1H-imidazol-4-yl)ethanone], the IC50 lay in the range of 200 to 1000 nM.

For the compound `COc1ccc(N2CCN(C(=O)Cc3c[nH]cn3)[C@@H](CC(C)C)C2)cc1OC1CCC1` [Compound 367, (S)-1-(4-(3-cyclobutoxy-4-methoxyphenyl)-2-isobutylpiperazin-1-yl)-2-(1H-imidazol-4-yl)ethanone], the IC50 was below 200 nM.

As for `CCOC(=O)CC(=O)N1CCN(c2ccc(OC)c(OC3CCCC3)c2)C[C@@H]1CC(C)C` [Compound 368, (S)-ethyl 3-(4-(3-(cyclopentyloxy)-4-methoxyphenyl)-2-isobutylpiperazin-1-yl)-3-oxopropanoate], the IC50 is above 1000 nM.

`COc1ccc(N2CCN(C(=O)Cc3cn(C)cn3)[C@@H](CC(C)C)C2)cc1OC1CCC1` [Compound 369, (S)-1-(4-(3-cyclobutoxy-4-methoxyphenyl)-2-isobutylpiperazin-1-yl)-2-(1-methyl-1H-imidazol-4-yl)ethanone]: the IC50 fell in the range of 200 to 1000 nM.

Consider `Cc1nc(CC(=O)N2CCN(c3ccc(OC(F)F)c(OCC4CC4)c3)C[C@@H]2CC(C)C)n[nH]1` [Compound 373, (S)-1-(4-(3-(cyclopropylmethoxy)-4-(difluoromethoxy)phenyl)-2-isobutylpiperazin-1-yl)-2-(5-methyl-1-H-1,2,4-triazol-3-yl)ethanone], for which the IC50 was below 200 nM.

On to `Cc1nc(CC(=O)N2CCN(c3ccc(OC(F)F)c(OC4CCCC4)c3)C[C@@H]2CC(C)C)n[nH]1` [Compound 374, (S)-1-(4-(3-(cyclopentyloxy)-4-(difluoromethoxy)phenyl)-2-isobutylpiperazin-1-yl)-2-(5-methyl-1H-1,2,4-triazol-3-yl)ethanone], for which the IC50 was below 200 nM.

In the case of `COc1ccc(N2CCN(C(=O)Cc3n[nH]c(C)n3)[C@@H](CC(C)C)C2)cc1OC(C)C` [Compound 377, (S)-1-(2-isobutyl-4-(3-isopropoxy-4-methoxyphenyl)piperazin-1-yl)-2-(5-methyl-1H-1,2,4-triazol-3-yl)ethanone], the IC50 lay in the range of 200 to 1000 nM.

In the case of `COc1ccc(N2CCN(C(=O)Cc3c[nH]cn3)[C@@H](CC(C)C)C2)cc1OC(C)C` [Compound 378, (S)-2-(1H-imidazol-4-yl)-1-(2-isobutyl-4-(3-isopropoxy-4-methoxyphenyl)piperazin-1-yl)ethanone], the IC50 lay in the range of 200 to 1000 nM.

As to `CCc1nn(C(C)C)c2cc(N3CCN(C(C)=O)[C@@H](Cc4ccccc4)C3)ccc12` [Compound 379, (S)-1-(2-benzyl-4-(3-ethyl-1-isopropyl-1H-indazol-6-yl)piperazin-1-yl)ethanone], the IC50 was above 1000 nM.

In the case of `CCc1nn(C2CCCC2)c2cc(N3CCN(C(=O)Cc4nc(C)n[nH]4)[C@@H](Cc4ccccc4)C3)ccc12` [Compound 380, (S)-1-(2-benzyl-4-(1-cyclopentyl-3-ethyl-1H-indazol-6-yl)piperazin-1-yl)-2-(3-methyl-1H-1,2,4-triazol-5-yl)ethanone], the IC50 was below 200 nM.

In the case of `CCc1nn(C(C)C)c2cc(N3CCN(C(=O)Cc4nc(C)n[nH]4)[C@@H](Cc4ccccc4)C3)ccc12` [Compound 381, (S)-1-(2-benzyl-4-(3-ethyl-1-isopropyl-1H-indazol-6-yl)piperazin-1-yl)-2-(3-methyl-1H-1,2,4-triazol-5-yl)ethanone], the IC50 is below 200 nM.

Take `CCc1nn(C(C)C)c2cc(N3CCN(C(=O)CC(N)=O)[C@@H](Cc4ccccc4)C3)ccc12` [Compound 382, (S)-3-(2-benzyl-4-(3-ethyl-1-isopropyl-1H-indazol-6-yl)piperazin-1-yl)-3-oxopropanamide]: the IC50 was above 1000 nM.

`CCc1nn(C(C)C)c2cc(N3CCN(CC(N)=O)[C@@H](Cc4ccccc4)C3)ccc12` [Compound 383, (S)-2-(2-benzyl-4-(3-ethyl-1-isopropyl-1H-indazol-6-yl)piperazin-1-yl)acetamide]: the IC50 is above 1000 nM.

As to `COc1ccc(N2CCN(C(=O)Cc3ccccn3)[C@@H](Cc3ccccc3)C2)cc1OC1CCCC1` [Compound 384, (S)-1-(2-benzyl-4-(3-(cyclopentyloxy)-4-methoxyphenyl)piperazin-1-yl)-2-(pyridin-2-yl)ethanone], the IC50 was below 200 nM.

Take `COc1ccc(N2CCN(C(=O)Cc3cccnc3)[C@@H](Cc3ccccc3)C2)cc1OC1CCCC1` [Compound 385, (S)-1-(2-benzyl-4-(3-(cyclopentyloxy)-4-methoxyphenyl)piperazin-1-yl)-2-(pyridin-3-yl)ethanone]: the IC50 is below 200 nM.

Take `COc1ccc(N2CCN(C(=O)Cc3ccncc3)[C@@H](Cc3ccccc3)C2)cc1OC1CCCC1` [Compound 386, (S)-1-(2-benzyl-4-(3-(cyclopentyloxy)-4-methoxyphenyl)piperazin-1-yl)-2-(pyridin-4-yl)ethanone]: the IC50 is above 1000 nM.

For the compound `COc1ccc(N2CCN(C(=O)Cc3cnccn3)[C@@H](Cc3ccccc3)C2)cc1OC1CCCC1` [Compound 387, (S)-1-(2-benzyl-4-(3-(cyclopentyloxy)-4-methoxyphenyl)piperazin-1-yl)-2-(pyrazin-2-yl)ethanone], the IC50 lay within 200 to 1000 nM.

As for `COc1ccc(N2CCN(C(=O)Cc3ncccn3)[C@@H](Cc3ccccc3)C2)cc1OC1CCCC1` [Compound 388, (S)-1-(2-benzyl-4-(3-(cyclopentyloxy)-4-methoxyphenyl)piperazin-1-yl)-2-(pyrimidin-2-yl)ethanone], the IC50 was below 200 nM.

The record behind these values is patent US9624200B2, “Therapeutic piperazines” (DART NEUROSCIENCE (CAYMAN) LTD., priority 2006, dated 2017).
